This is an account of results in patent US8802700B2 (Vertex Pharmaceuticals Incorporated, priority 2010, dated 2014).

pEC50: −log10 of the molar value.

The term pEC50 denotes the negative decadic logarithm of the EC50, by convention in mol/L.

The target of one assay is T1, ΔF508-CFTR (Homo sapiens, UniProt P13569, DEL508-508).
T1 construct: expressed in transfected cells
T1 sequence (P13569 with tags, fused parts or gaps DEL508-508): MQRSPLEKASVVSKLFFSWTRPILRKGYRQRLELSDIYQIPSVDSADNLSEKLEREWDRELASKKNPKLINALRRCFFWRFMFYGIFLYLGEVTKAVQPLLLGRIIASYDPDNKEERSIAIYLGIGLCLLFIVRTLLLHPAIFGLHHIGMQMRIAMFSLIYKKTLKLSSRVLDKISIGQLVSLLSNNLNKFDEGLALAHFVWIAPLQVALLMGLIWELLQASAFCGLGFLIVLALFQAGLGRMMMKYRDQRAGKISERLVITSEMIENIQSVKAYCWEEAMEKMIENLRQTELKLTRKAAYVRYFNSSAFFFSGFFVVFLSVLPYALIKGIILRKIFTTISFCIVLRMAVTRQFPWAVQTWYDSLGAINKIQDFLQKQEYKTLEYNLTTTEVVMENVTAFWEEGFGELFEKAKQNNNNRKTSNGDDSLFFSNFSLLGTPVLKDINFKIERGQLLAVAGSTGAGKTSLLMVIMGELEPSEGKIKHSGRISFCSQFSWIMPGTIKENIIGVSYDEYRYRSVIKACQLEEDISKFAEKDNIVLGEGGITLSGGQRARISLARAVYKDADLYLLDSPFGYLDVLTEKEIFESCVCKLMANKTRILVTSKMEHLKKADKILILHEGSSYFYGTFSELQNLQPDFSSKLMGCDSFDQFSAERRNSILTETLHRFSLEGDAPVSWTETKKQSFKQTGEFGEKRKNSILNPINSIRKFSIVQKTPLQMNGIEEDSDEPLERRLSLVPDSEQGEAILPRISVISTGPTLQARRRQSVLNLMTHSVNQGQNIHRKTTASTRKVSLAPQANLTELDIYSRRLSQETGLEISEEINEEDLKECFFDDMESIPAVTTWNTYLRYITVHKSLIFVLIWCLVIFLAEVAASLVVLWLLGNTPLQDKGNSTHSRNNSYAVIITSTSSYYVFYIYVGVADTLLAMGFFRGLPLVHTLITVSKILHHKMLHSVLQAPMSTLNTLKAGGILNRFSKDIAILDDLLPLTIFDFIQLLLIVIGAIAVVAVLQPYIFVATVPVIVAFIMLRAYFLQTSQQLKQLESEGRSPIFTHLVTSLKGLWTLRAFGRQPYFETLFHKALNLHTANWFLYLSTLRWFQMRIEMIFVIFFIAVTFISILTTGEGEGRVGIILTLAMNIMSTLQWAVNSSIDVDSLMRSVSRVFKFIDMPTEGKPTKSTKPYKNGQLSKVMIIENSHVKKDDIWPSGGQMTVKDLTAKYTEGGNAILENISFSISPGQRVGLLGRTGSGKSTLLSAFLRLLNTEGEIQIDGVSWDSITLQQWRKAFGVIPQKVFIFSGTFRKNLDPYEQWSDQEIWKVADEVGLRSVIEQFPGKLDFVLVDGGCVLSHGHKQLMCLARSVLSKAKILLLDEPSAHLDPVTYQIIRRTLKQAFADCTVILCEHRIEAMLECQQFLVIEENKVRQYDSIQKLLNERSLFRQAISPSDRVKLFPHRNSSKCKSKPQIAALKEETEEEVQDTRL
As to the kind of experiment: Membrane potential optical assay (FRET voltage-sensor dyes, VIPR), identification of potentiator compounds. Type of assay: cell-based. The conditions noted are these: Table 3; assay not given. The procedure, abridged:
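Potentiator screen measured membrane potential via FRET between CC2-DMPE donor and DiSBAC2(3), read on VIPR II. Compound went in with the first addition of chloride-free gluconate bath; cells were ΔF508-CFTR-expressing NIH3T3 mouse fibroblasts, temperature-corrected at 27 °C for 24 h.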
Take `CN(C)c1cc(NC(=O)c2c[nH]c3ccccc3c2=O)ccc1C(C)(C)C` [Compound 485, N-(3-Dimethylamino-4-tert-butyl-phenyl)-4-oxo-1H-quinoline-3-carboxamide]: the pEC50 is greater than 5.00.

As for `COc1ccccc1-c1cc2cc[nH]c2cc1NC(=O)c1c[nH]c2ccccc2c1=O` [Compound 237, N-[5-(2-methoxyphenyl)-1H-indol-6-yl]-4-oxo-1H-quinoline-3-carboxamide], the pEC50 was greater than 5.00.

Regarding `O=C(Nc1ccccc1-c1ccc2[nH]ccc2c1)c1c[nH]c2ccccc2c1=O` [Compound 118, N-[2-(1H-indol-5-yl)phenyl]-4-oxo-1H-quinoline-3-carboxamide], the pEC50 was greater than 5.00.

For the molecule `CC(C)(C)c1cc(Cl)c(NC(=O)c2c[nH]c3ccccc3c2=O)cc1O` [Compound 291, N-(2-chloro-5-hydroxy-4-tert-butyl-phenyl)-4-oxo-1H-quinoline-3-carboxamide], the negative logarithm of the EC50 (pEC50) is greater than 5.00.

Still in this assay, the particulars now being: Table 3; assay not given; read-out: % Activity (% Efficacy, relative efficacy).
On to `CC(C)(C)OC(=O)NCc1cc(NC(=O)c2c[nH]c3ccccc3c2=O)ccc1C(C)(C)C` [Compound 465, [5-[(4-oxo-1H-quinolin-3-yl)carbonylamino]-2-tert-butyl-phenyl]methylaminoformic acid tert-butyl ester], for which the Emax lay within 25 to 100%.

Regarding `O=C(Nc1ccccc1-c1ccccc1)c1c[nH]c2cc(C(F)(F)F)ccc2c1=O` [Compound 469, 4-oxo-N-(2-phenylphenyl)-7-(trifluoromethyl)-1H-quinoline-3-carboxamide], the Emax is 25 to 100%.

As to `CN(C)c1cc(NC(=O)c2c[nH]c3ccccc3c2=O)ccc1C(C)(C)C` [Compound 485, N-(3-Dimethylamino-4-tert-butyl-phenyl)-4-oxo-1H-quinoline-3-carboxamide], the Emax was in the range of 25 to 100%.

On to `COc1ccccc1-c1cc2cc[nH]c2cc1NC(=O)c1c[nH]c2ccccc2c1=O` [Compound 237, N-[5-(2-methoxyphenyl)-1H-indol-6-yl]-4-oxo-1H-quinoline-3-carboxamide], for which the Emax lay in the range of 25 to 100%.

As to `CC(C)(CNC(=O)OCC1CCOC1)c1ccc(NC(=O)c2c[nH]c3ccccc3c2=O)cc1` (stereo not shown) [Compound 396, [2-methyl-2-[4-[(4-oxo-1H-quinolin-3-yl)carbonylamino]phenyl]-propyl]aminoformic acid tetrahydrofuran-3-ylmethyl ester], the Emax was in the range of 25 to 100%.

With `O=C(Nc1cc2[nH]ccc2cc1C(F)(F)F)c1c[nH]c2ccccc2c1=O` [Compound 234, 4-oxo-N-[5-(trifluoromethyl)-1H-indol-6-yl]-1H-quinoline-3-carboxamide], the Emax lay in the range of 25 to 100%.

For `CC(C)(C)c1cc(C(C)(C)C)c(NC(=O)c2c[nH]c3cccc(N)c3c2=O)cc1O` [Compound 585, 5-amino-N-(5-hydroxy-2,4-ditert-butyl-phenyl)-4-oxo-1H-quinoline-3-carboxamide], the Emax is greater than 100%.

On to `O=C(Nc1cc(O)c(C2CCCC2)cc1C#CCO)c1c[nH]c2ccccc2c1=O` [Compound 512, N-[4-cyclopentyl-5-hydroxy-2-(3-hydroxyprop-1-ynyl)phenyl]-4-oxo-1H-quinoline-3-carboxamide], for which the Emax lay in the range of 25 to 100%.

For `O=C(Nc1ccc(-c2ccccc2)cc1)c1c[nH]c2ccccc2c1=O` [Compound 397, 4-oxo-N-(4-phenylphenyl)-1H-quinoline-3-carboxamide], the Emax lay in the range of 25 to 100%.

As for `CC(C)(C)c1cc(C(C)(C)C)c(C(F)F)cc1NC(=O)c1c[nH]c2ccccc2c1=O` [Compound 438, N-[5-(difluoromethyl)-2,4-ditert-butyl-phenyl]-4-oxo-1H-quinoline-3-carboxamide], the Emax lay in the range of 25 to 100%.

For `Cc1ccc(-c2ccccc2NC(=O)c2c[nH]c3ccccc3c2=O)cc1` [Compound 181, 4-oxo-N-[2-(p-tolyl)phenyl]-1H-quinoline-3-carboxamide], the Emax lay in the range of 25 to 100%.

For the molecule `COc1cccc(-c2ccccc2NC(=O)c2c[nH]c3ccccc3c2=O)c1` [Compound 283, N-[2-(3-methoxyphenyl)phenyl]-4-oxo-1H-quinoline-3-carboxamide], the Emax is greater than 100%.

Consider `NS(=O)(=O)c1cccc(NC(=O)c2c[nH]c3ccccc3c2=O)c1` [Compound 9, 4-oxo-N-(3-sulfamoylphenyl)-1H-quinoline-3-carboxamide], for which the Emax was less than 25%.

For the molecule `Cc1cccc2[nH]cc(C(=O)Nc3cc(O)c(C4(C)CCCCC4)cc3F)c(=O)c12` [Compound 498, N-[2-fluoro-5-hydroxy-4-(1-methylcyclohexyl)-phenyl]-5-methyl-4-oxo-1H-quinoline-3-carboxamide], the Emax fell in the range of 25 to 100%.

With `Cc1ccc2c(=O)c(C(=O)Nc3cc(O)c(C(C)(C)C)cc3C(C)(C)C)c[nH]c2c1` [Compound 640, N-(5-hydroxy-2,4-ditert-butyl-phenyl)-7-methyl-4-oxo-1H-quinoline-3-carboxamide], the Emax is greater than 100%.

Take `O=C(Nc1ccccc1OCc1ccccc1)c1c[nH]c2ccccc2c1=O` [Compound 240, N-(2-benzyloxyphenyl)-4-oxo-1H-quinoline-3-carboxamide]: the Emax was in the range of 25 to 100%.

On to `O=C(Nc1ccc2c(c1)NCCO2)c1c[nH]c2ccccc2c1=O` [Compound 105, 1,4-dihydro-N-(3,4-dihydro-2H-benzo[b][1,4]oxazin-6-yl)-4-oxoquinoline-3-carboxamide], for which the Emax was 25 to 100%.

As for `Cc1cc(C2C3CC4CC(C3)CC2C4)c(O)cc1NC(=O)c1c[nH]c2ccccc2c1=O` (stereo not shown) [Compound 208, N-[4-(2-adamantyl)-5-hydroxy-2-methyl-phenyl]-4-oxo-1H-quinoline-3-carboxamide], the Emax fell in the range of 25 to 100%.

On to `CC(C)(C)c1cc(Cl)c(O)cc1NC(=O)c1c[nH]c2ccccc2c1=O` [Compound 426, N-(4-chloro-5-hydroxy-2-tert-butyl-phenyl)-4-oxo-1H-quinoline-3-carboxamide], for which the Emax is 25 to 100%.

Turning to `Cc1cccc2[nH]cc(C(=O)Nc3ccc(N4CC[C@@H](C)C4)cc3C(F)(F)F)c(=O)c12` [Compound 613, (R)-5-methyl-N-(4-(3-methylpyrrolidin-1-yl)-2-(trifluoromethyl)phenyl)-4-oxo-1,4-dihydroquinoline-3-carboxamide], the Emax lay in the range of 25 to 100%.

For the molecule `CC(C)(C)c1c[nH]c2cc(NC(=O)c3c[nH]c4ccc(F)cc4c3=O)ccc12` [Compound 554, 6-fluoro-4-oxo-N-(3-tert-butyl-1H-indol-6-yl)-1H-quinoline-3-carboxamide], the Emax fell in the range of 25 to 100%.

As to `Cc1ccc(N)cc1NC(=O)c1c[nH]c2ccccc2c1=O` [Compound 94, N-(5-Amino-2-methyl-phenyl)-4-oxo-1H-quinoline-3-carboxamide], the Emax fell in the range of 25 to 100%.

In the case of `CC(C)(C)OC(=O)N1CCC(C)(C)c2ccc(NC(=O)c3c[nH]c4ccccc4c3=O)cc21` [Compound 108, 4,4-dimethyl-7-[(4-oxo-1H-quinolin-3-yl)carbonylamino]-1,2,3,4-tetrahydroquinoline-1-carboxylic acid tert-butyl ester], the Emax was in the range of 25 to 100%.

Consider `NS(=O)(=O)c1ccccc1NC(=O)c1c[nH]c2ccccc2c1=O` [Compound 78, 4-oxo-N-(2-sulfamoylphenyl)-1H-quinoline-3-carboxamide], for which the Emax was less than 25%.

Take `O=C(Nc1csc(C(F)(F)F)c1-c1ccccc1)c1c[nH]c2ccccc2c1=O` [Compound 708, 4-oxo-N-[4-phenyl-5-(trifluoromethyl)-3-thienyl]-1H-quinoline-3-carboxamide]: the Emax was in the range of 25 to 100%.

Regarding `CCOc1cccc2c(=O)c(C(=O)Nc3cc(O)c(C(C)(C)C)cc3F)c[nH]c12` [Compound 526, 8-ethoxy-N-(2-fluoro-5-hydroxy-4-tert-butyl-phenyl)-4-oxo-1H-quinoline-3-carboxamide], the Emax was less than 25%.

With `O=C(Nc1cc2ccccc2cn1)c1c[nH]c2ccccc2c1=O` [Compound 309, N-(3-isoquinolyl)-4-oxo-1H-quinoline-3-carboxamide], the Emax was less than 25%.

On to `CC(C)(C)c1cc(C(C)(C)C)c(NC(=O)c2c[nH]c3cccc(O)c3c2=O)cc1O` [Compound 464, 5-hydroxy-N-(5-hydroxy-2,4-ditert-butyl-phenyl)-4-oxo-1H-quinoline-3-carboxamide], for which the Emax lay within 25 to 100%.

Regarding `O=C(Nc1ccccc1-c1cccc(F)c1F)c1c[nH]c2ccccc2c1=O` [Compound 285, N-[2-(2,3-difluorophenyl)phenyl]-4-oxo-1H-quinoline-3-carboxamide], the Emax was in the range of 25 to 100%.

As to `Cc1ccccc1-c1ccccc1NC(=O)c1c[nH]c2ccccc2c1=O` [Compound 199, N-[2-(o-tolyl)phenyl]-4-oxo-1H-quinoline-3-carboxamide], the Emax is 25 to 100%.

As to `CCOCCc1c[nH]c2cc(NC(=O)c3c[nH]c4ccccc4c3=O)ccc12` [Compound 423, N-[3-(2-ethoxyethyl)-1H-indol-6-yl]-4-oxo-1H-quinoline-3-carboxamide], the Emax lay within 25 to 100%.

As for `O=C(Nc1cccc(C(F)(F)F)c1)c1c[nH]c2ccccc2c1=O` [Compound 164, 4-oxo-N-[3-(trifluoromethyl)phenyl]-1H-quinoline-3-carboxamide], the Emax lay within 25 to 100%.

`CCOc1ccc(NC(C)=O)cc1NC(=O)c1c[nH]c2ccccc2c1=O` [Compound 132, N-(5-acetylamino-2-ethoxy-phenyl)-4-oxo-1H-quinoline-3-carboxamide]: the Emax was less than 25%.

In the case of `CC(C)(C)c1cc2cc[nH]c2cc1NC(=O)c1c[nH]c2cccc(F)c2c1=O` [Compound 656, 5-fluoro-4-oxo-N-(5-tert-butyl-1H-indol-6-yl)-1H-quinoline-3-carboxamide], the Emax lay within 25 to 100%.

Regarding `CC(C)(C)c1cc2cc[nH]c2cc1NC(=O)c1c[nH]c2ccc(F)cc2c1=O` [Compound 124, 6-fluoro-4-oxo-N-(5-tert-butyl-1H-indol-6-yl)-1H-quinoline-3-carboxamide], the Emax is greater than 100%.

As for `O=C(Nc1ccccc1-c1ccc2[nH]ccc2c1)c1c[nH]c2ccccc2c1=O` [Compound 118, N-[2-(1H-indol-5-yl)phenyl]-4-oxo-1H-quinoline-3-carboxamide], the Emax was 25 to 100%.

In the case of `O=C(Nc1ccccc1C(O)c1ccccc1)c1c[nH]c2ccccc2c1=O` (stereo not shown) [Compound 228, N-[2-(hydroxy-phenyl-methyl)phenyl]-4-oxo-1H-quinoline-3-carboxamide], the Emax was in the range of 25 to 100%.

Consider `CC(C)CNC(=O)c1cc2cc[nH]c2cc1NC(=O)c1c[nH]c2ccccc2c1=O` [Compound 343, N-[5-(Isobutylcarbamoyl)-1H-indol-6-yl]-4-oxo-1H-quinoline-3-carboxamide], for which the Emax was in the range of 25 to 100%.

In the case of `CC(C)(C)c1cc(Cl)c(NC(=O)c2c[nH]c3ccccc3c2=O)cc1O` [Compound 291, N-(2-chloro-5-hydroxy-4-tert-butyl-phenyl)-4-oxo-1H-quinoline-3-carboxamide], the Emax lay in the range of 25 to 100%.
